Data: a melting point compilation (Tetko et al.; mined from patent text by program, amines drawn as free bases though some values may be those of a salt)

melting point [°C] | Structure (SMILES)
219 to 223 | CCCCc1nc2c(N)nc3ccc(O)cc3c2n1CCCCNS(=O)(=O)c1ccccc1
93 to 95 | Cc1cc(C(=O)NC/C=C\COc2ncccc2CN2CCCCC2)n[nH]1
63.2 to 64.8 | CC(C)C(C#N)Nc1ccc(C(F)(F)F)cc1Cl (stereo not given)
119 to 121 | CCOC(=O)C(CC)Oc1ccc(-c2coc3cc4c(cc3c2=O)OCO4)cc1 (stereo not given)
47.5 to 49 | COc1ccc2c(c1)CCC1C2CCC2(C)C(NCCCCCCCCN)CCC12 (stereo not given)
189 to 190 | O=c1ccc(-c2c(-c3ccccc3)nn3ccccc23)nn1C1CCC2(CC1)OCCO2
192 to 193 | COc1nc(C)c(C)cc1NC(=S)N1CCN(c2cc(C)cc(C)c2)CC1
70 to 71 | CCOC(=O)C1COc2cc(C)c(C)cc2O1 (stereo not given)
225 to 237 | CC(C)(C)C(=O)OCC(CCn1cnc2c(=O)[nH]c(N)nc21)COC(=O)C(C)(C)C
118 to 120 | CCc1oc2ccccc2c1C(C)(C)C(N)=NO
119 to 121 | Clc1cc2nc(NCCCN3CCOCC3)c(-c3ccccn3)nc2cc1Cl
97 to 98 | COC(=O)c1cccc(CN2C(=O)C3(COc4cc5c(cc43)CCO5)c3ccccc32)c1 (stereo not given)
67 | CC(C)(C)OC(=O)CC(C#N)c1ccc(Cl)c(Cl)c1 (stereo not given)
109 to 111 | CCOc1ccc(OCC(C)(NS(=O)(=O)Cc2ccccc2)C(=O)N2CCOCC2)cc1 (stereo not given)
86.5 to 88 | COC(=O)C1OC(c2ccccc2)OCC1(C)C (stereo not given)
174 to 176 | CCCCOc1ccc(S(C)(=O)=O)cc1-c1nc2c(CC)n(CCOC)nc2c(=O)[nH]1
193 to 195 | CC1CCCN1CCCOc1ccc2c(c1)CCC1CC(=O)NN=C21 (stereo not given)
293 to 295 | CC1CC(=O)NN=C1c1ccc2[nH]c(-c3ccnnc3)cc2c1 (stereo not given)
137 | CCOC(=O)C(CCc1ccccc1)NC(CCCCNC(=O)CNC(=O)OC(C)(C)C)C(=O)O (stereo not given)
194 | COc1ccc(Cl)c(Oc2c(C=O)nc(N3CCOCC3)nc2NS(=O)(=O)c2ccc(C(C)C)cn2)c1
52 to 55 | CN(C)CCCOc1cc(F)c(-c2c(Cl)nc3nccn3c2NCC(F)(F)F)c(F)c1
89 | COc1cc(CN2CCN(c3ccccc3C)CC2)cc(OC)c1OC
151 to 152 | Cc1oc(-c2ccccc2)nc1COc1ccc(COc2nn(-c3ccccc3)cc2CC(=O)O)cc1

melting point [°C] | Structure (SMILES)
172 | COC(=O)c1ccc(COCn2cc(Cl)cnc2=O)cc1
256 to 258 | Cc1cc2c(c(C(C)(C)C)c1)OCC(/C=C/C=C/C=C/C(=O)O)=C2
134 to 136 | CN(C(=O)C(C)(C)c1cc(C(F)(F)F)cc(C(F)(F)F)c1)c1cnc(N2CCOCC2)cc1-c1ccccc1Cl
194 to 195 | CC(C)(CO)NC(=O)c1nn(C2CCCCO2)cc1NC(=O)c1ccccn1 (stereo not given)
152 to 154 | CC(C)(C)c1nc(C[C@@H]2CC[C@](C)(NCC(=O)N3C[C@@H](F)C[C@H]3C#N)C2(C)C)no1
94 to 97 | OC(COc1cccc2[nH]ccc12)CN1CCC(c2c[nH]c3cc(F)ccc23)CC1 (single isomer, unassigned; (+))
188 to 189 | NC(=O)N1CC(Oc2cccc(Br)c2)C1
249 to 251 | CCOP(=O)(CCOC(=O)c1c(I)c(NC(C)=O)c(I)c(NC(C)=O)c1I)OCC
115 to 117 | c1cc(-c2noc(C3CC3)n2)cnn1
114 to 115 | CCOC(=O)c1cn(CC)nc1OCc1ccc(OCc2nc(-c3ccco3)oc2C)c(OC)c1
98 to 101 | CC(=O)OC1CCC2(C)C(=CC=C3C2CCC2(C)C(C(C)CC#CC(C)(C)OC(C)=O)=CCC32)C1 (stereo not given)
151 to 153 | Cc1cc(O)c(C2CCCCC2)cc1S(=O)c1cc(C2CCCCC2)c(O)cc1C
180 to 182 | COC(=O)C1(CC(N)=O)C(=O)N(Cc2ccc(Br)cc2F)C(=O)c2ccccc21 (stereo not given)
163 | COCCO[C@@H]1c2ccc3c(nc(C)n3C)c2O[C@H](c2ccccc2)[C@H]1O
139 to 140 | CNC(=O)C1(C)Oc2c(C)c(C)c(O)c(C)c2CC1OC (stereo not given)
105 to 106 | CCCS(=O)(=O)c1cc(C(=O)NCC2CCCN2CC)c(OC)cc1N (stereo not given)
179 | O=C(Nc1ccccc1S(=O)(=O)N1CCCCC1)N[C@@H](Cc1ccc(Nc2nccc3ccncc23)cc1)C(=O)O
105 to 109 | O=C(CI)N1CCN(C(=O)CI)CC1
202 | Nc1nc2c(ncn2COCCCP(=O)(O)O)c(=O)[nH]1
200 to 201 | CCn1c(=O)c2c(nc(/C=C/c3ccc(-c4ccccc4)cc3)n2C)n(CC)c1=O
190 to 192 | CSc1cc(C)nc(SC)c1NC(=O)CCl
143 to 145 | CC1(C(=O)Nc2ccc(-n3nc(C(F)(F)F)cc3C(F)(F)F)cc2)CC1(Cl)Cl (stereo not given)
140 to 142 | COC1CN(Cc2ccc(Nc3cc(-c4cccc(-n5ncc6cc(C(C)(C)C)cc(F)c6c5=O)c4CO)nn(C)c3=O)nc2)C1

The next lines start with the compound.

Structure (SMILES) | melting point [°C]
CCOC(OCC)c1cccc2c1Sc1c(C=O)cccc1N2C | 154
CCCCCCCCCCCCCCCCCCCCOC(=O)P(=O)(O)O | 87 to 89
Cn1cccc(N)c1=S | 98 to 100
O=S(=O)(Nc1ccc(Cl)nn1)c1ccccc1-c1ccccc1 | 196 to 198
O=C(OCOCOC(=O)c1c(F)cccc1F)c1c(F)cccc1F | 52 to 53
Cc1cc(-c2c(-c3ccc(S(C)(=O)=O)cc3)cnn(-c3ccc(F)c(Cl)c3)c2=O)ccc1F | 207 to 208
CCc1ccc(S(=O)(=O)N(c2ccc(Cl)cc2[N+](=O)[O-])C(C)C)cc1 | 117 to 118
Cc1ccccc1-n1c(Cn2cnc3c(N)ncnc32)nc2cccc(C)c2c1=O | 282 to 283
O=C1Nc2cc(F)ccc2Nc2ccsc21 | 225 to 230
O=P(O)(O)Cc1ccc(-c2ccccc2)cc1 | 246 to 248
OC1(OCc2ccccc2)C(Cl)=C(Cl)C=CC1OCc1ccccc1 (stereo not given) | 74 to 75
CCCCC(=O)NCCCSCCO | 7
O=C(Nc1ccc(C2=CCN(C(=O)Nc3ccc(OCCO)cc3C(F)(F)F)CC2)cc1)Nc1ccccc1F | 110 to 112
CCOC(=O)C(=O)c1ccc(-c2ccc(-c3ccccc3)cc2)o1 | 91 to 94
COCCOC(=O)c1cc(NC(=O)OCc2ccccc2)ccc1OCCOC | 104 to 105
CC(C)Cn1cnc2cnc3ccc(OCc4ccccc4)cc3c21 | 129 to 133
CCCCc1nnc2ccccc2c1Cl | 50
CC(C)Cc1nn(C)c(=O)c2c(SCCCO)n(Cc3ccccc3)cc12 | 91 to 92
C=C(C)C(=O)NCC(OC)OC | 30 to 32
O=[N+]([O-])c1ccc(NS(=O)(=O)c2cc(Cl)c(Cl)cc2Cl)c(Cl)c1 | 177 to 179
Cn1cc(-c2nnc(-c3ccncc3)o2)c2ccccc21 | 212 to 214
C=C(C(=O)O)c1ccc2cc(OC)ccc2c1 | 175
CN1OC(COCc2ccc(Cl)cc2)CC1(Cn1ccnc1)c1ccc(Cl)cc1 (stereo not given) | 97 to 100
NS(=O)(=O)c1ccc(-c2cc(-c3nc(-c4ccc(C(F)(F)F)cc4F)cc(C(F)(F)F)n3)ccn2)s1 | 228
CCCc1c(OCCCOc2ccc(-c3nnn[nH]3)cc2Cl)ccc(C(C)=O)c1O | 214 to 216
c1ccc(-c2cc(N3CCNCC3)nc(-c3ccccn3)n2)nc1 | 159 to 161
CCC(Br)=C(CC)S(=O)(=O)CBr | 96 to 97

Structure (SMILES) | melting point [°C]
Cn1cnc(COc2nn3c(-c4cccc(F)c4)nnc3cc2-c2ccccc2)n1 | 250 to 251
CCCc1c(OCc2ccc(Cc3nnn[nH]3)cc2)ccc(C(C)=O)c1O | 184 to 187
CCCCCCCCCCC1CNC(=O)O1 (stereo not given) | 86 to 87
CCCCCc1ccc(-c2ccc(C(C)O)cc2)cc1 (single isomer, unassigned; (-)) | 83.8
c1cc(COc2ccc(OCc3ccc4ccccc4n3)cc2)cc(OCc2nnn[nH]2)c1 | 131 to 132
CC(C)S(=O)(=O)NC[C@@H](C)c1ccc(-c2ccc3c(c2)CC(=O)N3)cc1 | 170 to 171
CC12CCC(=O)C=C1CCC1C2CCC2(C)C(OC(=O)CBr)CCC12 (stereo not given) | 144 to 145
CCCCCCCCCCCCCCOc1ccccc1C(=O)OC | 39 to 40
CCCCCCCCCSCCCN=C=O | 86 to 88
Cc1ccc(S(=O)(=O)OCC2Cc3cccc(-c4ccsc4)c3O2)cc1 (stereo not given) | 90 to 92
CCOc1cc(CCl)nc(OCC)n1 | 38 to 39
OC(c1cn(C(c2ccccc2)(c2ccccc2)c2ccccc2)cn1)c1cc(Cl)cc2c1OCOC2 (stereo not given) | 233 to 235
Clc1ncc(OCc2ccccc2)c2ccccc12 | 97 to 98
COC(=S)c1cc(N)ccc1C | 96 to 98
Cc1[nH]c(-c2nc3ccc(C(=O)c4ccccc4)cc3[nH]2)c(C)c1C(=O)O | > 300
Cc1ccc(COc2ccc(C=C3CCCCC3=O)cc2)cc1 | 148 to 149
N#CCSc1nc2cc(Cl)ccc2s1 | 96 to 97
CC(NC(=O)OCc1ccccc1)C(=O)NCCc1ccccc1 (stereo not given) | 125 to 126
Oc1ccccc1C=NC1=NN(c2cccc(C(F)(F)F)c2)CC1 | 156
O=c1c2cnc3ccc(C(F)(F)F)cc3c2on1-c1ccccc1 | 175
Oc1ccc2c(-c3ccc4c(Br)c(O)ccc4c3)noc2c1 | 275 to 277
Cc1ccc(N2CN(c3ccccc3)C3=NN=CC3=C2Cl)cc1 | 177 to 179
COC(=O)CS(=O)(=O)CCCCCCn1nc(-c2ccccc2)c(-c2ccccc2)c1-c1ccccc1 | 92.5 to 94.5
CCCCOc1ccc(Cc2nn(-c3ccccc3Cl)c(=S)o2)cc1 | 69
COc1ccc(S)c(C(=O)O)c1 | 173 to 178
O=[N+]([O-])c1cnn(-c2c(Cl)cc(C(F)(F)F)cc2Cl)n1 | 105
CC(=O)N(c1ccc(F)cc1Cl)S(=O)(=O)CCl | 89 to 92
